Here are results for nine compounds from patent US10626108B2, “Heterocyclic indoles for use in influenza virus infection” (Janssen Sciences Ireland UC, priority 2015, dated 2020).

Series [1] concerns influenza virus A/Taiwan/1/86 (H1N1). In words: organism not typed. It is filed as cell-based. The following applies: 72 h; MDCK cells infected with influenza A/Taiwan/1/86 (H1N1), MOI 0.001 or 0.01; CPE via ATP levels three days post-virus exposure.
The nature of another series: in vitro. The following applies: dog.

pIC50: −log10 of the molar value.

For orientation: pIC50 means the IC50 on a negative log10 scale, so that one unit is a factor of ten. Higher therefore signals a small IC50. In turn, `O=C(O)[C@H]1C2CCC(CC2)[C@@H]1Nc1cnnc(-c2c[nH]c3c(F)cc(F)cc23)n1` (racemic) [Compound 6] had a pIC50 in series [1] of 6.89. Besides, the CC50 at 3 days in the series “in vitro” is above 5 µM.

`Cc1nc(-c2c[nH]c3c(F)cc(F)cc23)nc(N[C@H]2CCC[C@@H](NC(=O)c3cn(C)cn3)C2)c1F` [Compound 13] had a negative-log IC50 (pIC50) in series [1] of 9.00. Further, in “in vitro”, the CC50 at 3 days was found to be 10.4 µM.

Regarding `Cc1nc(-c2c[nH]c3c(F)cc(F)cc23)nc(N[C@H]2CCC[C@@H](NC(=O)c3cnn(C)c3)C2)c1F` [Compound 14], the pIC50 in series [1] is 8.70. Moreover, the CC50 at 3 days in the series “in vitro” is above 25 µM.

For `Cc1nc(-c2c[nH]c3c(F)cc(F)cc23)nc(N[C@H]2CCC[C@@H](NC(=O)c3cnn[nH]3)C2)c1F` [Compound 15], the pIC50 in series [1] was 9.70. In the series “in vitro”, this compound had a CC50 at 3 days of 3.4 µM.

As to `Cc1nc(-c2c[nH]c3ncncc23)nc(N[C@@H]2CCC[C@H](NC(=O)c3ccccn3)C2)c1F` [Compound 21], the pIC50 in series [1] is 9.00. In the series “in vitro”, the CC50 at 3 days was above 25 µM.

Compound `O=C(N[C@H]1CCC[C@@H](Nc2cncc(-c3c[nH]c4c(F)cc(F)cc34)n2)C1)N1CCCC1` [Compound 25] had a pIC50 in series [1] of 7.59. For the same compound, the CC50 at 3 days in “in vitro” is 9.7 µM.

The compound `O=C(N[C@H]1CCC[C@@H](Nc2cnnc(-c3c[nH]c4c(F)cc(F)cc34)n2)C1)N1CCCC1` [Compound 28] gave a pIC50 in series [1] of 8.10. In the series “in vitro”, this compound had a CC50 at 3 days of 15.5 µM.

Compound `Cc1nc(-c2c[nH]c3c(F)cc(F)cc23)nc(N[C@H]2CCC[C@@H](NC(=O)c3csc(C(=O)O)n3)C2)c1F` [Compound 29] had a negative-log IC50 (pIC50) in series [1] of 8.70. The compound also came in with a CC50 at 3 days in “in vitro” of 21 µM.

In series [1], `O=C(N[C@H]1CCC[C@@H](Nc2nc(-c3c[nH]c4c(F)cc(F)cc34)nc(C(=O)O)c2F)C1)c1cnn[nH]1` [Compound 36] had a pIC50 of 8.15. The compound also registered a CC50 at 3 days in “in vitro” above 25 µM.
